Results: patent publication US8097585B2, “Methods of treating inflammation by administration of heme oxygenase-1 and products of heme degradation” (priority 2002, dated 2012)

What was measured:
[1] = tested on: DSS-colitis; assay: DSS-colitis (acute colitis) mouse model: weight loss, DAI, symptoms, crypt score; assay type: in vivo, C57BL/6 mice
Excerpt: Animals. Pathogen-free male C57BL/6 mice, 4-6 weeks of age (Taconic; C57BL/6×129 svj strain) were used in this example. Mice were kept for one week at 4 mice/cage and fed normal laboratory chow and drinking water ad libitum prior to the experiments. All mice weighed between 22.5 g and 27.7 g at the beginning of the trial. The animal experimentation protocol was reviewed and approved by the Animal Care and Use Committees of the Beth Israel Deaconess Medical Center.
Induction of Colitis. Colitis was induced by feeding mice 5% (wt/v) dextran sodium sulfate (DSS) (MW 40,000; ICN Biomedicals Inc., OH), dissolved in distilled water, for a period of 7 days. The resulting condition was termed “DSS-colitis.” Control animals were fed distilled water ad libitum. The mortality rate in the control group and the CO-treated group was 10% (2/20) and 14% (2/14), respectively. These animals were excluded from the statistical analysis. In the other groups, no mortality occurred during 7 days of 5% DSS treatment.
Experimental Reagents and Treatment Protocol. Cobalt protoporphyrin (CoPPIX), zinc protoporphyrin (ZnPPIX, Porphyrin Products, Logan, Utah) and biliverdin dihydrochloride (ICN Biomedicals Inc., OH) were dissolved in a small amount 0.2 M NaOH, subsequently adjusted to a pH of 7.4 with 1 M HCl, and diluted in 0.9% NaCl. The stock solutions (CoPPIX and ZnPPIX=1 mg/ml, biliverdin=10 mM) were aliquoted and kept at −70° C. until used. Light exposure was limited as much as possible. CoPPIX (5 mg/kg), ZnPPIX (20 mg/kg) and biliverdin (50 μmol/kg) were administered to the mice intraperitoneally (i.p.) 24 hours before induction of DSS-colitis and daily thereafter. Desferoxamine (DFO) was prepared in imidazole buffer (50 mM imidazole, 220 mM NaCl, pH 7.4). DFO was injected subcutaneously (s.c.) twice daily (125 mg/kg) or infused i.p. (130 mg/kg/day; pumping rate 0.5 μl/hour for 8 days) by miniosmotic Alzet™ pumps (Alza Corporation, Palo Alto, Calif.) (Postma et al., Exp. Parasitol. 89(3):323-30 1998). The pumps were installed i.p. 24 hours before induction of colitis. When animals were sacrificed at day 7 of DSS treatment, the pumps were removed and evaluated to determine if DFO application had taken place.
CO gas was administrated exogenously by putting animals in a CO exposure chamber (Otterbein et al., Nat. Med. 6(4):422-8, 2000). Briefly, CO at a concentration of 1% (10,000 parts per million (ppm)) in compressed air was mixed with balanced air (21% oxygen) in a stainless steel mixing cylinder before entering the exposure chamber. CO concentrations were controlled by varying the flow rates of CO in a mixing cylinder before delivery to the chamber. Because the flow rate is primarily determined by the O2 flow, only the CO flow was changed to deliver the final concentration to the exposure chamber. A CO analyzer (Interscan Corporation, Chatsworth, Calif.) was used to measure CO levels continuously in the chamber. Mice were placed in the chamber 24 hours before the induction of the colitis and were kept in the exposure chamber during the whole period of the experiment (total of 8 days). […] Animals were removed daily from the chamber to assess weight and stool.
Evaluation of Symptoms of Colitis. All animals were evaluated clinically on a daily basis. The evaluation of each animal included a measurement of weight, hemoccult positivity and examination of stool for the presence of gross blood and stool consistency. The disease activity index (DAI) was calculated by scoring percent weight loss, intestinal bleeding (no blood; occult blood=hemoccult+; gross blood) and stool consistency (normal stool=well-formed pellets; loose stool=pasty and semiformed stools; diarrhea=liquid stool that stuck to the anus) (Table 1).
The animals were sacrificed, and the whole colon from the colo-cecal junction to the anal verge was removed and gently cleaned of stool. […]

[2] = tested on: IL-6; assay: Real time RT-PCR of graft muscularis after SITx, IL-6; assay type: in vivo, LEW rats; settings: figure legend 23A-23D, graft muscularis 4 hours after transplantation
Description: Small Intestinal Transplantation. Orthotopic small intestinal transplantation (SITx) was performed in syngeneic Lewis rats. SITx with caval drainage was performed using a previously described procedure (Murase et al., in Handbook of Animal Models in Transplantation Research, Cramer et al., Eds. CRC Press, Boca Raton, Fla., pp. 203-213 (1994)). […] The graft was perfused via the aortic segment with 5 ml chilled Ringer's lactate solution, and the intestinal lumen was irrigated with 20 ml of cold saline solution containing 0.5% neomycin-sulfate (Sigma, St. Louis, Mo.). End-to-side anastomoses between the graft aorta and the recipient infrarenal aorta, and between the graft portal vein and recipient vena cava, were performed with 10-0 Novafil™ suture. The cold ischemic time was 1 hour. The entire recipient intestine was removed and the enteric continuity was restored by proximal and distal end-to-end intestinal anastomoses. Recipient animals were given 20 mg/day prophylactic cefamandole nafate for 3 postoperative days. Transplanted recipients were given water 3 hours after surgery, and were fed 24 hours after surgery.
(§1) SYBR green real time RT-PCR. The effects of administration of biliverdin on transplant-induced pro-inflammatory and anti-inflammatory gene expression were assessed in muscularis extracts by RT-PCR Biliverdin ([…], i.p.) was administered to both the donor and recipient three hours preoperatively. The muscularis externae was collected from normal intestine and transplanted grafts 4 hours postoperatively and snap frozen in liquid nitrogen. […] Equal aliquots (5 μg) of total RNA from each sample were quantified by spectrophotometry (wavelength […]) and aliquoted at a concentration of 40 ng/μl. Peak mRNA expression was quantified in duplicate by SYBR Green two-step, real-time RT-PCR. […] Real-time PCR data were plotted as the ΔRn fluorescence signal versus the cycle number. […] Quantification of mRNA expression was normalized to GAPDH and calculated relative to control using the comparative CT method (Schmittgen et al., J. Biochem. Biophys. Methods 46(1-2):69-8, 2000). […]

[3] = tested on: IL-1β; assay: Real time RT-PCR of graft muscularis after SITx, IL-1β; assay type: in vivo, LEW rats; settings: figure legend 23A-23D, graft muscularis 4 hours after transplantation
Description: Small Intestinal Transplantation. Orthotopic small intestinal transplantation (SITx) was performed in syngeneic Lewis rats. SITx with caval drainage was performed using a previously described procedure (Murase et al., in Handbook of Animal Models in Transplantation Research, Cramer et al., Eds. CRC Press, Boca Raton, Fla., pp. 203-213 (1994)). […] The graft was perfused via the aortic segment with 5 ml chilled Ringer's lactate solution, and the intestinal lumen was irrigated with 20 ml of cold saline solution containing 0.5% neomycin-sulfate (Sigma, St. Louis, Mo.). […]
as §1, with “preoperatively.” for “preoperatively. The muscularis externae was collected from normal intestine and transplanted grafts 4 hours postoperatively and snap frozen in liquid nitrogen.”

## [C-]#[O+] [CO, carbon monoxide]
[1]; 7 days of 5% DSS, CO exposure chamber 250-400 ppm
  mortality rate: 14%
[1]; continuous exposure to 200-400 ppm CO, compared to the control
  effect on DSS-colitis (weight loss, DAI): did not have an effect
[2]
  mean expression of IL-6 mRNA: significantly reduced
[3]
  mean expression of IL-1b mRNA: significantly reduced
